Data taken from PMC10265666, “Lung SPLUNC1 Peptide Derivatives in the Lipid Membrane Headgroup Kill Gram-Negative Planktonic and Biofilm Bacteria” (Biomacromolecules, 2023).
Values joined by “and” are separate entries in the source; they are usually repeats but may differ in a detail not shown here. Identical values can stand only once. No end group written: not given here.

Tests used:
[1] = test system: eukaryotic cells vs bacteria; assay: Therapeutic index (eukaryotic cell kill concentration / bacterial kill concentration); type: cell-based
Procedure: But more important than cytotoxicity is the therapeutic index (TI), which is the concentration at which ≥90% of eukaryotic cells are killed divided by the concentration at which ≥90% of bacteria are killed. For A4-153, this TI value is an estimated ≈ 128 μM/16 μM ≈ 8. TI for A4-157 is an estimated 128 μM/24 μM ≈ 5, and the TI for A4-183 is an estimated 64 μM/20 μM ≈ 3.

[2] = Circular dichroism secondary structure in Euk33 ULVs; type: physicochemical; conditions: 10 μM peptide, 15 mM PBS pH 7, 37 °C
HBE cells = type: cell-based
Procedure: (§1) page 4: Additional toxicity studies at 16 hours incubation with peptides Figure S3. Figure S4. […]

THP-1 cells = type: cell-based
Procedure: as §1

[3] = Circular dichroism secondary structure in G(−)IM ULVs; type: physicochemical; conditions: 10 μM peptide, 15 mM PBS pH 7, 37 °C
Procedure: Unilamellar vesicles (ULVs) of ∼600 Å diameter were prepared using an Avanti extruder: 200 μL of 20 mg/ml G(−)IM lipid in 15 mM PBS was extruded 21 times through Nucleopore filters of size 500 Å using 0.2 mL Hamilton syringes in the Avanti extruder. The final concentration of G(−)IM lipid in the ULVs was determined gravimetrically to be 15 mg/ml. Concentrated ULVs were added to 3 mL of 10 μM peptide in 15 mM PBS at pH 7 to create lipid/peptide molar ratios between 0:1 and 70:1. The samples remained at room temperature for ∼16 h before the CD measurement. Data were collected in 3 mL quartz cuvettes using a Jasco 1500 CD spectrophotometer at 37 °C in the Center for Nucleic Acids Science and Technology at Carnegie Mellon University. The samples were scanned from 200 to 240 nm 20 times, and the ellipticity (ϵ) results were averaged. Temperature was controlled at 37 °C via a Peltier element and water circulation through the sample compartment. Nitrogen gas was used at a flow rate between 20 and 25 ft^3/h (CFH). The parameters for scanning were: speed 100 nm/min, step size 1.0 nm, response time 1 second, bandwidth 1 nm, and sensitivity of 20 mdeg. OriginPro 2019 (OriginLab, Northampton, MA) was used to carry out a linear least-squares fit of the smoothed ellipticity traces to four secondary structural motifs representing α-helix, β-sheet, β-turn, and random coil.[20] This analysis gives a percentage match of each of the secondary structural motifs to the total sample ellipticity. Data were finally converted to mean residue ellipticity, taking into account the peptide concentration (10 μMolar) and number of amino acids (N), using the equation: MRE = (10^4/N)ϵ deg cm^2/dmol.

[4] = G(−)IM/peptide molar ratio 10:1
[5] = G(−)IM/peptide molar ratio 15:1
[6] = G(−)IM/peptide molar ratio 20:1
[7] = G(−)IM/peptide molar ratio 25:1
[8] = G(−)IM/peptide molar ratio 30:1
[9] = G(−)IM/peptide molar ratio 50:1

FKKFLKKFKGWLGGLWGK [A4-183]
concentration at which ≥90% of bacteria are killed ([1]; denominator of TI): 20 µM
concentration at which ≥90% of eukaryotic cells are killed (estimated) ([1]; numerator of TI): ~64 µM
Random ([2]; Euk33/peptide molar ratio 0:1): 65.9%
α-helix ([2]; Euk33/peptide molar ratio 0:1): 3.1%
β-sheet ([2]; Euk33/peptide molar ratio 0:1): 31.0%
β-turn ([2]; Euk33/peptide molar ratio 0:1): 0%
Random ([2]; Euk33/peptide molar ratio 5:1): 64.1%
α-helix ([2]; Euk33/peptide molar ratio 5:1): 8.6%
β-sheet ([2]; Euk33/peptide molar ratio 5:1): 27.3%
β-turn ([2]; Euk33/peptide molar ratio 5:1): 0%
Random ([2]; Euk33/peptide molar ratio 10:1): 67.8%
α-helix ([2]; Euk33/peptide molar ratio 10:1): 13.0%
β-sheet ([2]; Euk33/peptide molar ratio 10:1): 19.2%
β-turn ([2]; Euk33/peptide molar ratio 10:1): 0%
Random ([2]; Euk33/peptide molar ratio 20:1): 61.2%
α-helix ([2]; Euk33/peptide molar ratio 20:1): 10.4%
β-sheet ([2]; Euk33/peptide molar ratio 20:1): 28.4%
β-turn ([2]; Euk33/peptide molar ratio 20:1): 0%
Random ([2]; Euk33/peptide molar ratio 30:1): 60.0%
α-helix ([2]; Euk33/peptide molar ratio 30:1): 13.6% and 14%
β-sheet ([2]; Euk33/peptide molar ratio 30:1): 26.4%
β-turn ([2]; Euk33/peptide molar ratio 30:1): 0%
Random ([2]; Euk33/peptide molar ratio 70:1): 37.4%
α-helix ([2]; Euk33/peptide molar ratio 70:1): 12.2%
β-sheet ([2]; Euk33/peptide molar ratio 70:1): 50.4%
β-turn ([2]; Euk33/peptide molar ratio 70:1): 0%
cytotoxicity (HBE cells): greatest cytotoxicity at high concentrations
cytotoxicity (THP-1 cells): less toxic in THP-1 cells than in the other cell types
Random ([3]; G(−)IM/peptide molar ratio 0:1): 65.9%
α-helix ([3]; G(−)IM/peptide molar ratio 0:1): 3.1%
β-sheet ([3]; G(−)IM/peptide molar ratio 0:1): 31.0%
β-turn ([3]; G(−)IM/peptide molar ratio 0:1): 0%
Random ([3]; G(−)IM/peptide molar ratio 1:1): 64.1%
α-helix ([3]; G(−)IM/peptide molar ratio 1:1): 4.7%
β-sheet ([3]; G(−)IM/peptide molar ratio 1:1): 31.2%
β-turn ([3]; G(−)IM/peptide molar ratio 1:1): 0%
Random ([3]; G(−)IM/peptide molar ratio 5:1): 59.2%
α-helix ([3]; G(−)IM/peptide molar ratio 5:1): 22.6%
β-sheet ([3]; G(−)IM/peptide molar ratio 5:1): 18.2%
β-turn ([3]; G(−)IM/peptide molar ratio 5:1): 0%
Random [3, 4]: 29.1%
α-helix [3, 4]: 44.4%
β-sheet [3, 4]: 14.9%
β-turn [3, 4]: 11.6%
Random [3, 5]: 0.4%
α-helix [3, 5]: 63.0%
β-sheet [3, 5]: 14.1%
β-turn [3, 5]: 22.5%
Random [3, 6]: 12.4%
α-helix [3, 6]: 66.7%
β-sheet [3, 6]: 8.8%
β-turn [3, 6]: 12.1%
Random [3, 7]: 11.7%
α-helix [3, 7]: 64.9%
β-sheet [3, 7]: 12.5%
β-turn [3, 7]: 10.9%
Random [3, 8]: 13.0%
α-helix [3, 8]: 69.4%
β-sheet [3, 8]: 8.7%
β-turn [3, 8]: 8.9%
Random [3, 9]: 18.2%
α-helix [3, 9]: 63.6%
β-sheet [3, 9]: 9.1%
β-turn [3, 9]: 9.1%
